Tests used:
recombinant human CK2 = recombinant human CK2 (Homo sapiens (Human), UniProt P68400); test: CK2 assay (cell-free, 33P-ATP filter plate); assay type: biochemical; settings: for inhibition at 10 µM: read-out: CK2 % inhib @ 10 uM; for inhibition at 0.5 µM: 500 nM compound, cell-free assay, read-out: CK2: % inh 500 nM
recombinant human PIM1 = recombinant human PIM1 (Homo sapiens (Human), UniProt P11309); test: PIM-1 kinase activity in cell-free in vitro assay; assay type: biochemical; settings: cell-free assay; for inhibition at 0.5 µM: 500 nM compound, read-out: PIM-1: % inh 500 nM
recombinant human PIM1, sequence (P11309 whole entry): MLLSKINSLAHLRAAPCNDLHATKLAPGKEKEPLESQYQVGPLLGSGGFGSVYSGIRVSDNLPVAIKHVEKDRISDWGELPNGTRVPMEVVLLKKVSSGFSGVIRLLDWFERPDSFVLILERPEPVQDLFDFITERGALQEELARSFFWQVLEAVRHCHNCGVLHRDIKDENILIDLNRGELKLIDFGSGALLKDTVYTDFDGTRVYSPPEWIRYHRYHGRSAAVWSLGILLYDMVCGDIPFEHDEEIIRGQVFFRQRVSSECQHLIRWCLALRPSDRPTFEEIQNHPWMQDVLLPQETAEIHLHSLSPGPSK

recombinant human CK2, sequence (P68400 whole entry): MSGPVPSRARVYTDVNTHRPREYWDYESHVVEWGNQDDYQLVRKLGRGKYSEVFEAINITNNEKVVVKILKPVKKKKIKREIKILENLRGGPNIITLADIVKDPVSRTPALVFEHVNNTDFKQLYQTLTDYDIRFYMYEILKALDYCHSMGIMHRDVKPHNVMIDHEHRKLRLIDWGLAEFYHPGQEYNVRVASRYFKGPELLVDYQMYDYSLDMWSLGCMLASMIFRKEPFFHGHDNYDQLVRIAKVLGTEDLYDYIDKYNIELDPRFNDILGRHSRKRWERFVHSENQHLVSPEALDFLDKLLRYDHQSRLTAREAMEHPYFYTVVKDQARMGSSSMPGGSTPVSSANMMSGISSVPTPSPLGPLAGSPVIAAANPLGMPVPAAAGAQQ
recombinant human CK2, sequence (P67870 whole entry partner): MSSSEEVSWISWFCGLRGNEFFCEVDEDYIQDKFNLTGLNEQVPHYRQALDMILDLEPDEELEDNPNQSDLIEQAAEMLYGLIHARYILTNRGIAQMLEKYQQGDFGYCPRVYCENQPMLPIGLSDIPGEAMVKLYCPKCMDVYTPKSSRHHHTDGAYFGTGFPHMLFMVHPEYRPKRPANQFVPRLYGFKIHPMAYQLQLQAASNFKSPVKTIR

Row | Compound | inhibition at 10 µM (recombinant human CK2) | other results
1 | O=c1[nH]c2ccccc2c2sccc12 | 0% | –
2 | COC(=O)c1ccc2c(c1)[nH]c(=O)c1ccsc12 | 17% | –
3 | O=C(O)c1ccc2c(c1)[nH]c(=O)c1cc(Br)sc12 | 5% | –
4 | CC(C)(C)OC(=O)CCNC(=O)c1ccc2c(c1)[nH]c(=O)c1ccsc12 | 8% | –
5 | COC(=O)CNC(=O)c1ccc2c(c1)[nH]c(=O)c1ccsc12 | 10% | –
6 | O=C(O)CCNC(=O)c1ccc2c(c1)[nH]c(=O)c1ccsc12 | 16% | –
7 | O=C(O)CNC(=O)c1ccc2c(c1)[nH]c(=O)c1ccsc12 | 12% | –
8 | O=C(Nc1nccs1)c1ccc2c(c1)[nH]c(=O)c1ccsc12 | 10% | –
9 | O=C(Nc1cccnc1)c1ccc2c(c1)[nH]c(=O)c1ccsc12 | -9% | –
10 | O=C(Nc1ccc(Cl)cc1)c1ccc2c(c1)[nH]c(=O)c1ccsc12 | -10% | –
11 | O=C(NCCc1cnc[nH]1)c1ccc2c(c1)[nH]c(=O)c1ccsc12 | 7% | –
12 | O=C(NCCN1CCOCC1)c1ccc2c(c1)[nH]c(=O)c1ccsc12 | -9% | –
13 | O=C(c1ccc2c(c1)[nH]c(=O)c1ccsc12)N1CCOCC1 | 2% | –
14 | CCCNC(=O)c1ccc2c(c1)[nH]c(=O)c1ccsc12 | -34% | –
15 | O=C(NCCc1ccccn1)c1ccc2c(c1)[nH]c(=O)c1ccsc12 | -24% | –
16 | COCCNC(=O)c1ccc2c(c1)[nH]c(=O)c1ccsc12 | -19% | –
17 | COc1ccc(CCNC(=O)c2ccc3c(c2)[nH]c(=O)c2ccsc23)cc1OC | -22% | –
18 | CN(C)C(=O)c1ccc2c(c1)[nH]c(=O)c1ccsc12 | 3% | –
19 | CC(=O)N1CCN(C(=O)c2ccc3c(c2)[nH]c(=O)c2ccsc23)CC1 | 7% | –
20 | O=C(NC1CC1)c1ccc2c(c1)[nH]c(=O)c1ccsc12 | 0% | –

Row | Compound | inhibition at 10 µM (recombinant human CK2) | other results
21 | CC(C)(C)OC(=O)N1CCN(C(=O)c2ccc3c(c2)[nH]c(=O)c2ccsc23)CC1 | -25% | –
22 | COc1ccccc1CNC(=O)c1ccc2c(c1)[nH]c(=O)c1ccsc12 | 8% | –
23 | Cc1cc(CNC(=O)c2ccc3c(c2)[nH]c(=O)c2ccsc23)no1 | -13% | –
24 | COc1ccc(CNC(=O)c2ccc3c(c2)[nH]c(=O)c2ccsc23)cc1 | 1% | –
25 | O=C(NCc1ccccn1)c1ccc2c(c1)[nH]c(=O)c1ccsc12 | 3% | –
26 | O=C(NCCc1ccccc1)c1ccc2c(c1)[nH]c(=O)c1ccsc12 | 1% | –
27 | O=C(NCc1ccncc1)c1ccc2c(c1)[nH]c(=O)c1ccsc12 | -13% | –
28 | O=C(NCc1cccnc1)c1ccc2c(c1)[nH]c(=O)c1ccsc12 | -24% | –
29 | O=C(Nc1ccc(CN2CCS(=O)(=O)CC2)cc1)c1ccc2c(c1)[nH]c(=O)c1ccsc12 | -1% | –
30 | O=C(c1ccc2c(c1)[nH]c(=O)c1ccsc12)N1CCNCC1 | -27% | –
31 | NC1CCN(C(=O)c2ccc3c(c2)[nH]c(=O)c2ccsc23)CC1 | -3% | –
32 | O=C(Nc1ccccc1C(=O)O)c1ccc2c(c1)[nH]c(=O)c1ccsc12 | 41% | –
33 | NC(=O)c1ccc2c(c1)[nH]c(=O)c1ccsc12 | -14% | –
34 | O=c1[nH]c2cc(CO)ccc2c2sccc12 | 3% | –
35 | N#Cc1ccc2c(c1)[nH]c(=O)c1ccsc12 | -5% | –
36 | CN1CCCCC1CNc1nc2cc(C#N)ccc2c2cscc12 (centres unmarked) | – | inhibition at 0.5 µM (recombinant human CK2): 24.6%; inhibition at 0.5 µM (recombinant human PIM1): 46.4%
37 | CN(C)CCNc1nc2cc(C#N)ccc2c2cscc12 | – | inhibition at 0.5 µM (recombinant human CK2): 23.4%; inhibition at 0.5 µM (recombinant human PIM1): 20%
38 | CCN1CCCC1CNc1nc2cc(C#N)ccc2c2cscc12 (centres unmarked) | – | inhibition at 0.5 µM (recombinant human CK2): 20.7%; inhibition at 0.5 µM (recombinant human PIM1): 6.89%
39 | CN(C)CCNc1nc2cc(-c3nnn[nH]3)ccc2c2cscc12 | – | inhibition at 0.5 µM (recombinant human CK2): 66%; inhibition at 0.5 µM (recombinant human PIM1): 89.7%; IC50 (recombinant human PIM1): 87 nM
40 | CCN1CCCC1CNc1nc2cc(-c3nnn[nH]3)ccc2c2cscc12 (centres unmarked) | – | inhibition at 0.5 µM (recombinant human CK2): 72.8%; inhibition at 0.5 µM (recombinant human PIM1): 95.9%; IC50 (recombinant human PIM1): 79 nM

From patent US8168651B2, “Protein kinase modulators” (Cylene Pharmaceuticals, Inc., priority 2008, dated 2012)
